# Data from patent EP0551518A1, “QUINOLINECARBOXYLIC ACID DERIVATIVE” (NIPPON SHINYAKU COMPANY, LIMITED, priority 1990, dated 1992).
# Where two headings read alike, the source gives them in different places.
# Experiments:
# Assay in all cases: Determination of minimal inhibitory concentration of growth (MIC)-1, agar plate dilution method
# Type in all cases: cell-based
# [1] = tested on: Proteus vulgaris HX-19; conditions: Proteus vulgaris, HX19, 18 h
# Description: (§1) Method: MIC was determined by the agar plate dilution method in accordance with the standard protocol of Japan Society of Chemotherapy (cf. Chemotherapy 29 (1), 76-79, 1981). Each bacterial culture obtained by 18-hour incubation in a sensitivity assay bouillon medium at 37°C was diluted to 10⁶ CFU/ml with the same medium. Using a microplanter, a sensitivity assay agar medium containing the test drug was inoculated with the diluted culture and incubated at 37°C for 18 hours. The MIC value was then determined. As reference drugs, 6-fluoro-1-methyl-4-oxo-7-(1-piperazinyl)-4H-[1,3]thiazeto[3,2-a]quinoline-3-carboxylic acid (referred to as control), ciprofloxacin (CPFX) and ofloxacin (OFLX) were used.
# [2] = tested on: Staphylococcus aureus Smith
# Description: as §1
# [3] = tested on: Escherichia coli KC-14; conditions: Escherichia coli, KC14, 18 h, 10⁶ CFU/ml, 37°C, read-out: MIC
# Description: as §1
# [4] = tested on: Staphylococcus aureus OWPH 1984 (MRSA); conditions: Staphylococcus aureus, MRSA, 18 h
# Description: as §1
# [5] = tested on: Micrococcus luteus ATCC 9341
# Description: as §1
# [6] = tested on: Staphylococcus aureus OWPH 2125 (MRSA, PCA^r ); conditions: Staphylococcus aureus, MRSA, 18 h
# Description: as §1
# [7] = tested on: Staphylococcus epider-midis IFO 12993; conditions: Staphylococcus, IFO12993, 18 h
# Description: as §1
# [8] = tested on: Staphylococcus aureus 209-P JC-1; conditions: Staphylococcus aureus, 209P, 18 h
# Description: as §1
# [9] = tested on: Bacillus subtilis ATCC 6633
# Description: as §1
# [10] = tested on: Pseudomonas aeruginosa IFO 3445; conditions: Pseudomonas aeruginosa, IFO3445, 18 h
# Description: as §1
# [11] = tested on: Enterococcus faecalis ATCC 29212
# Description: as §1
# [12] = Proteus vulgaris HX-19, agar plate dilution, 10⁶ CFU/ml, 37°C, 18 hours, read-out: MIC
# [13] = Staphylococcus aureus Smith, agar plate dilution, 10⁶ CFU/ml, 37°C, 18 hours, read-out: MIC
# [14] = Staphylococcus aureus OWPH 1984 (MRSA), agar plate dilution, 10⁶ CFU/ml, 37°C, 18 hours, read-out: MIC
# [15] = ATCC9341, Micrococcus luteus ATCC 9341, agar plate dilution, 10⁶ CFU/ml, 37°C, 18 hours, read-out: MIC
# [16] = Staphylococcus aureus OWPH 2125 (MRSA, PCA^r), agar plate dilution, 10⁶ CFU/ml, 37°C, 18 hours, read-out: MIC
# [17] = Staphylococcus epider-midis IFO 12993, agar plate dilution, 10⁶ CFU/ml, 37°C, 18 hours, read-out: MIC
# [18] = Staphylococcus aureus 209-P JC-1, agar plate dilution, 10⁶ CFU/ml, 37°C, 18 hours, read-out: MIC
# [19] = ATCC6633, Bacillus subtilis ATCC 6633, agar plate dilution, 10⁶ CFU/ml, 37°C, 18 hours, read-out: MIC
# [20] = Pseudomonas aeruginosa IFO 3445, agar plate dilution, 10⁶ CFU/ml, 37°C, 18 hours, read-out: MIC
# [21] = ATCC29212, Enterococcus faecalis ATCC 29212, agar plate dilution, 10⁶ CFU/ml, 37°C, 18 hours, read-out: MIC
"MIC [1, 12]","MIC [2, 13]",MIC [3],"MIC [4, 14]","MIC [5, 15]","MIC [6, 16]","MIC [7, 17]","MIC [8, 18]","MIC [9, 19]","MIC [10, 20]","MIC [11, 21]",SMILES,also measured
0.025 mg/L,≤ 0.006 mg/L,0.2 mg/L,0.025 mg/L,6.25 mg/L,0.2 mg/L,0.1 mg/L,0.012 mg/L,≤ 0.006 mg/L,0.39 mg/L,0.39 mg/L,"O=C(O)c1c2n(c3cc(-c4ccccc4)c(F)cc3c1=O)CS2 [Example 18, 6-Fluoro-4-oxo-7-phenyl-4H-[1,3]thiazeto[3,2-a]quinoline-3-carboxylic acid]",–
0.012 mg/L,≤ 0.006 mg/L,0.1 mg/L,0.025 mg/L,6.25 mg/L,0.2 mg/L,0.025 mg/L,0.012 mg/L,≤ 0.006 mg/L,0.78 mg/L,0.2 mg/L,"O=C(O)c1c2n(c3c(F)c(-c4ccccc4)c(F)cc3c1=O)CS2 [Example 19, 6,8-Difluoro-4-oxo-7-phenyl-4H-[1,3]thiazeto[3,2-a]quinoline-3-carboxylic acid]",–
0.39 mg/L,0.05 mg/L,0.78 mg/L,0.025 mg/L,3.13 mg/L,0.39 mg/L,0.05 mg/L,0.05 mg/L,0.025 mg/L,6.25 mg/L,0.39 mg/L,"COc1c(-c2ccccc2)c(F)cc2c(=O)c(C(=O)O)c3n(c12)CS3 [Example 21, 6-Fluoro-8-methoxy-4-oxo-7-phenyl-4H-[1,3]thiazeto[3,2-a]quinoline-3-carboxylic acid]",–
0.1 mg/L,≤ 0.006 mg/L,0.2 mg/L,0.012 mg/L,0.39 mg/L,0.05 mg/L,0.012 mg/L,0.012 mg/L,≤ 0.006 mg/L,0.39 mg/L,0.05 mg/L,"CC1Sc2c(C(=O)O)c(=O)c3cc(F)c(-c4ccccc4)c(F)c3n21 (stereo not drawn) [Example 24, 6,8-Difluoro-1-methyl-4-oxo-7-phenyl-4H-[1,3]thiazeto[3,2-a]quinoline-3-carboxylic acid]",–
0.012 mg/L,≤ 0.006 mg/L,0.1 mg/L,≤ 0.006 mg/L,0.1 mg/L,≤ 0.006 mg/L,≤ 0.006 mg/L,0.012 mg/L,≤ 0.006 mg/L,0.78 mg/L,0.05 mg/L,"COc1c(-c2ccc(N)cc2)c(F)cc2c(=O)c(C(=O)O)c3n(c12)C(C)S3 (stereo not drawn) [Example 27, 7-(4-Aminophenyl)-6-fluoro-8-methoxy-1-methyl-4-oxo-4H[1,3]thiazeto[3,2-a]quinoline-3-carboxylic acid]",–

# The next lines start with the compound.
SMILES,"MIC [1, 12]","MIC [2, 13]",MIC [3],"MIC [4, 14]","MIC [5, 15]","MIC [6, 16]","MIC [7, 17]","MIC [8, 18]","MIC [9, 19]","MIC [10, 20]","MIC [11, 21]",also measured
"CC1COc2c(N3CCN(C)CC3)c(F)cc3c(=O)c(C(=O)O)cn1c23 (racemic) [OFLX, ofloxacin, reference compound]",0.05 mg/L,0.2 mg/L,0.05 mg/L,0.39 mg/L,3.13 mg/L,6.25 mg/L,0.39 mg/L,0.39 mg/L,0.1 mg/L,0.78 mg/L,1.56 mg/L,–
"O=C(O)c1cn(C2CC2)c2cc(N3CCNCC3)c(F)cc2c1=O [CPFX, ciprofloxacin, reference compound]",–,–,0.025 mg/L,–,–,–,–,–,–,–,–,"MIC [1]: 0.025 mg/L; MIC ([2]; Staphylococcus aureus, 18 h): 0.2 mg/L; MIC [4]: 0.39 mg/L; MIC ([5]; Micrococcus luteus, ATCC9341, 18 h): 0.39 mg/L; MIC [6]: 12.5 mg/L; MIC [7]: 0.39 mg/L; MIC [8]: 0.2 mg/L; MIC ([9]; Bacillus subtilis, ATCC6633, 18 h): 0.05 mg/L; MIC [10]: 0.2 mg/L; MIC ([11]; Enterococcus faecalis, ATCC29212, 18 h): 1.56 mg/L"
"CC1Sc2c(C(=O)O)c(=O)c3cc(F)c(-c4ccccc4)cc3n21 (stereo not drawn) [Example 5, 6-Fluoro-1-methyl-4-oxo-7-phenyl-4H-[1,3]thiazeto[3,2-a]quinoline-3-carboxylic acid]",0.05 mg/L,≤ 0.006 mg/L,0.1 mg/L,0.012 mg/L,0.39 mg/L,0.05 mg/L,0.025 mg/L,0.025 mg/L,≤ 0.006 mg/L,0.2 mg/L,0.1 mg/L,–
"Nc1ccc(-c2cc3c(cc2F)c(=O)c(C(=O)O)c2n3CS2)cc1 [Example 31, 7-(4-Aminophenyl)-6-fluoro-4-oxo-4H-[1,3]thiazeto[3,2-a]quinoline-3-carboxylic acid]",≤ 0.006 mg/L,≤ 0.006 mg/L,0.025 mg/L,0.025 mg/L,1.56 mg/L,0.2 mg/L,≤ 0.006 mg/L,0.012 mg/L,≤ 0.006 mg/L,0.2 mg/L,0.1 mg/L,–
"COc1ccc(-c2cc3c(cc2F)c(=O)c(C(=O)O)c2n3C(C)S2)cc1 (stereo not drawn) [Example 38, 6-Fluoro-7-(4-methoxyphenyl)-1-methyl-4-oxo-4H-[1,3]th-iazeto[3,2-a]quinoline-3-carboxylic acid]",0.78 mg/L,0.025 mg/L,0.39 mg/L,0.025 mg/L,0.39 mg/L,0.2 mg/L,0.1 mg/L,0.1 mg/L,0.012 mg/L,1.56 mg/L,0.2 mg/L,–
"CC1Sc2c(C(=O)O)c(=O)c3cc(F)c(-c4ccc(O)cc4)cc3n21 (stereo not drawn) [Example 44, 6-Fluoro-7-(4-hydroxyphenyl)-1-methyl-4-oxo-4H-[1,3]thiazeto[3,2-a]quinoline-3-carboxylic acid]",0.025 mg/L,≤ 0.006 mg/L,0.1 mg/L,0.012 mg/L,0.1 mg/L,0.05 mg/L,≤ 0.006 mg/L,≤ 0.006 mg/L,≤ 0.006 mg/L,0.2 mg/L,0.1 mg/L,–
"CNc1ccc(-c2cc3c(cc2F)c(=O)c(C(=O)O)c2n3CS2)cc1 [Example 46, 6-Fluoro-7-(4-methylaminophenyl)-4-oxo-4H-[1,3]thiazeto[3,2-a]quinoline-3-carboxylic acid]",0.025 mg/L,≤ 0.006 mg/L,0.1 mg/L,0.012 mg/L,0.78 mg/L,0.1 mg/L,0.05 mg/L,0.025 mg/L,≤ 0.006 mg/L,0.78 mg/L,0.2 mg/L,–
